Source: patent publication US20250270191A1, “QUINOLONE BCL6 BIFUNCTIONAL DEGRADERS” (Treeline Biosciences, Inc., priority 2022, published 2025)

Target: T1, Human BCL6 protein (N-terminal HiBiT tagged BCL6 in HT1080 cells) (Homo sapiens, UniProt P41182+Q96SW2)
T1 construct: Human BCL6 protein coding open reading frame; expressed in transfected cells; host or cells: HT1080 (ATCC CCL-121), stably transduced with lentivirus pLV-UBC-N-HiBiT-BCL6-PGK-puro
Assay: HiBiT based BCL6 degradation assay
Format: cell-based
Conditions: HT1080 cells expressing N-terminal HiBiT tagged BCL6; 5 hours incubation; BCL6 degradation normalized with DMSO control
Excerpt: Human BCL6 protein coding open reading frame fused with N-terminal HiBiT coding sequence was synthesized from Integrated DNA Technologies (IDT). Next, the N-HiBiT-BCL6 sequence was cloned into pLV-UBC-PGK-Puro, a lentivirus plasmid purchased from Vectorbuilder, to generate pLV-UBC-N-HiBiT-BCL6-PGK-puro. Lentiviral particles were generated from Lenti-X™ 293T cells (Clontech) by co-transfection of pLV-UBC-N-HiBiT-BCL6-PGK-puro plasmids and lentiviral packaging plasmid mix (Cellecta). HT1080 [HT1080] (ATCC CCL-121) cells were infected with the lentivirus, and HT1080 cells stably integrated with the lentiviral vectors were established by incubation with 1 μg/mL puromycin (Thermofisher).
HT1080 cells expressing N-terminal HiBiT tagged BCL6 were dispensed into a 384-well plate pre-spotted with compounds at varying concentrations. Five thousand cells were seeded into each well in 40 μL of RPMI 1640 media plus 10% Fetal Bovine Serum (10082-147, Thermofisher). After 5 hours of incubation at 37° C. with 5% CO2, 30 μL of the NANO-GLO® HiBiT Lytic Detection System working solution (Promega) was added to each well and incubated at room temperature for 15 min. After incubation, luminescence was read on a PHERAstar FSX Plate Reader (BMG). BCL6 degradation at each indicated concentration was normalized with DMSO control. The BCL6 degradation curves were plotted using a four-parameter logistic model.

Compound	Ymin (5 hr)
CNC(=O)COc1cc2cc(Nc3nc(NC[C@H]4CC[C@@H](Nc5ccc6c(C7CCC(=O)NC7=O)nn(C)c6c5)CC4)ncc3Cl)ccc2n(C)c1=O (some centres unmarked) [Compound 289a, 2-((6-((5-chloro-2-((((1s,4s)-4-((3-(2,6-dioxopiperidin-3-yl)-1-methyl-1H-indazol-6-yl)amino)cyclohexyl)methyl)amino)pyrimidin-4-yl)amino)-1-methyl-2-oxo-1,2-dihydroquinolin-3-yl)oxy)-N-methylacetamide]	+ (Ymin > 70%)
CNC(=O)COc1cc2cc(Nc3nc(NC[C@H]4CC[C@H](Nc5ccc6c(C7CCC(=O)NC7=O)nn(C)c6c5)CC4)ncc3Cl)ccc2n(C)c1=O (some centres unmarked) [Compound 289b, 2-((6-((5-chloro-2-((((1r,4r)-4-((3-(2,6-dioxopiperidin-3-yl)-1-methyl-1H-indazol-6-yl)amino)cyclohexyl)methyl)amino)pyrimidin-4-yl)amino)-1-methyl-2-oxo-1,2-dihydroquinolin-3-yl)oxy)-N-methylacetamide]	++++ (Ymin ≤ 25%)
CNC(=O)COc1cc2cc(Nc3nc(N4CCC(C5CN(c6ccc7c(C8CCC(=O)NC8=O)nn(C)c7c6)C5)CC4)ncc3Cl)ccc2n(C)c1=O (centres unmarked) [Compound 292, 2-((6-((5-chloro-2-(4-(1-(3-(2,6-dioxopiperidin-3-yl)-1-methyl-1H-indazol-6-yl)azetidin-3-yl)piperidin-1-yl)pyrimidin-4-yl)amino)-1-methyl-2-oxo-1,2-dihydroquinolin-3-yl)oxy)-N-methylacetamide]	+++ (25% < Ymin ≤ 50%)
CNC(=O)COc1cc2cc(Nc3nc(NC[C@H]4CC[C@@H](CNc5ccc6c(C7CCC(=O)NC7=O)nn(C)c6c5)CC4)ncc3Cl)ccc2n(C)c1=O (some centres unmarked) [Compound 293a, 2-((6-((5-chloro-2-((((1s,4s)-4-(((3-(2,6-dioxopiperidin-3-yl)-1-methyl-1H-indazol-6-yl)amino)methyl)cyclohexyl)methyl)amino)pyrimidin-4-yl)amino)-1-methyl-2-oxo-1,2-dihydroquinolin-3-yl)oxy)-N-methylacetamide]	+++ (25% < Ymin ≤ 50%)
CNC(=O)COc1cc2cc(Nc3nc(NC[C@H]4CC[C@H](CNc5ccc6c(C7CCC(=O)NC7=O)nn(C)c6c5)CC4)ncc3Cl)ccc2n(C)c1=O (some centres unmarked) [Compound 293b, 2-((6-((5-chloro-2-((((1r,4r)-4-(((3-(2,6-dioxopiperidin-3-yl)-1-methyl-1H-indazol-6-yl)amino)methyl)cyclohexyl)methyl)amino)pyrimidin-4-yl)amino)-1-methyl-2-oxo-1,2-dihydroquinolin-3-yl)oxy)-N-methylacetamide]	++ (50% < Ymin ≤ 70%)
CNC(=O)COc1cc2cc(Nc3nc(NC[C@H]4CCCN(c5ccc6c(C7CCC(=O)NC7=O)nn(C)c6c5)C4)ncc3Cl)ccc2n(C)c1=O (stereo partly drawn) [Compound 295a, 2-((6-((5-chloro-2-((((3R)-1-(3-(2,6-dioxopiperidin-3-yl)-1-methyl-1H-indazol-6-yl)piperidin-3-yl)methyl)amino)pyrimidin-4-yl)amino)-1-methyl-2-oxo-1,2-dihydroquinolin-3-yl)oxy)-N-methylacetamide]	++ (50% < Ymin ≤ 70%)
CNC(=O)COc1cc2cc(Nc3nc(NC[C@@H]4CCCN(c5ccc6c(C7CCC(=O)NC7=O)nn(C)c6c5)C4)ncc3Cl)ccc2n(C)c1=O (stereo partly drawn) [Compound 295b, 2-((6-((5-chloro-2-((((3S)-1-(3-(2,6-dioxopiperidin-3-yl)-1-methyl-1H-indazol-6-yl)piperidin-3-yl)methyl)amino)pyrimidin-4-yl)amino)-1-methyl-2-oxo-1,2-dihydroquinolin-3-yl)oxy)-N-methylacetamide]	++ (50% < Ymin ≤ 70%)
CNC(=O)COc1cc2cc(Nc3nc(N4CCC(CCCOc5ccc6c(C7CCC(=O)NC7=O)nn(C)c6c5)CC4)ncc3Cl)ccc2n(C)c1=O (centres unmarked) [Compound 296, 2-((6-((5-chloro-2-(4-(3-((3-(2,6-dioxopiperidin-3-yl)-1-methyl-1H-indazol-6-yl)oxy)propyl)piperidin-1-yl)pyrimidin-4-yl)amino)-1-methyl-2-oxo-1,2-dihydroquinolin-3-yl)oxy)-N-methylacetamide]	+++ (25% < Ymin ≤ 50%)
CNC(=O)COc1cc2cc(Nc3nc(NC[C@H]4CC[C@@H](CNc5cccc6c(C7CCC(=O)NC7=O)nn(C)c56)CC4)ncc3Cl)ccc2n(C)c1=O (some centres unmarked) [Compound 297a, 2-((6-((5-chloro-2-((((1s,4s)-4-(((3-(2,6-dioxopiperidin-3-yl)-1-methyl-1H-indazol-7-yl)amino)methyl)cyclohexyl)methyl)amino)pyrimidin-4-yl)amino)-1-methyl-2-oxo-1,2-dihydroquinolin-3-yl)oxy)-N-methylacetamide]	++ (50% < Ymin ≤ 70%)
CNC(=O)COc1cc2cc(Nc3nc(NC[C@H]4CC[C@H](CNc5cccc6c(C7CCC(=O)NC7=O)nn(C)c56)CC4)ncc3Cl)ccc2n(C)c1=O (some centres unmarked) [Compound 297b, 2-((6-((5-chloro-2-((((1r,4r)-4-(((3-(2,6-dioxopiperidin-3-yl)-1-methyl-1H-indazol-7-yl)amino)methyl)cyclohexyl)methyl)amino)pyrimidin-4-yl)amino)-1-methyl-2-oxo-1,2-dihydroquinolin-3-yl)oxy)-N-methylacetamide]	++ (50% < Ymin ≤ 70%)
CNC(=O)COc1cc2cc(Nc3nc(N4CCN(CC5CCC6(CC5)CN(c5ccc7c(C8CCC(=O)NC8=O)nn(C)c7c5)C6)CC4)ncc3Cl)ccc2n(C(C)C)c1=O (centres unmarked) [Compound 298, 2-((6-((5-chloro-2-(4-((2-(3-(2,6-dioxopiperidin-3-yl)-1-methyl-1H-indazol-6-yl)-2-azaspiro[3.5]nonan-7-yl)methyl)piperazin-1-yl)pyrimidin-4-yl)amino)-1-isopropyl-2-oxo-1,2-dihydroquinolin-3-yl)oxy)-N-methylacetamide]	+++ (25% < Ymin ≤ 50%)
CNC(=O)COc1cc2cc(Nc3nc(N4CCC[C@H](CN(C)c5cccc6c(C7CCC(=O)NC7=O)nn(C)c56)C4)ncc3Cl)ccc2n(C)c1=O (stereo partly drawn) [Compound 299a, 2-((6-((5-chloro-2-((3R)-3-(((3-(2,6-dioxopiperidin-3-yl)-1-methyl-1H-indazol-7-yl)(methyl)amino)methyl)piperidin-1-yl)pyrimidin-4-yl)amino)-1-methyl-2-oxo-1,2-dihydroquinolin-3-yl)oxy)-N-methylacetamide]	+++ (25% < Ymin ≤ 50%)
CNC(=O)COc1cc2cc(Nc3nc(N4CCC[C@@H]4CNc4cccc5c(C6CCC(=O)NC6=O)nn(C)c45)ncc3Cl)ccc2n(C)c1=O (stereo partly drawn) [Compound 300a, 2-((6-((5-chloro-2-((2R)-2-(((3-(2,6-dioxopiperidin-3-yl)-1-methyl-1H-indazol-7-yl)amino)methyl)pyrrolidin-1-yl)pyrimidin-4-yl)amino)-1-methyl-2-oxo-1,2-dihydroquinolin-3-yl)oxy)-N-methylacetamide]	++ (50% < Ymin ≤ 70%)
CNC(=O)COc1cc2cc(Nc3nc(N4CCC[C@H]4CNc4cccc5c(C6CCC(=O)NC6=O)nn(C)c45)ncc3Cl)ccc2n(C)c1=O (stereo partly drawn) [Compound 300b, 2-((6-((5-chloro-2-((2S)-2-(((3-(2,6-dioxopiperidin-3-yl)-1-methyl-1H-indazol-7-yl)amino)methyl)pyrrolidin-1-yl)pyrimidin-4-yl)amino)-1-methyl-2-oxo-1,2-dihydroquinolin-3-yl)oxy)-N-methylacetamide]	+ (Ymin > 70%)
CNC(=O)COc1cc2cc(Nc3nc(N4CCC[C@H](COc5cccc6c(C7CCC(=O)NC7=O)nn(C)c56)C4)ncc3Cl)ccc2n(C)c1=O (stereo partly drawn) [Compound 301a, 2-((6-((5-chloro-2-((3S)-3-(((3-(2,6-dioxopiperidin-3-yl)-1-methyl-1H-indazol-7-yl)oxy)methyl)piperidin-1-yl)pyrimidin-4-yl)amino)-1-methyl-2-oxo-1,2-dihydroquinolin-3-yl)oxy)-N-methylacetamide]	++ (50% < Ymin ≤ 70%)
CNC(=O)COc1cc2cc(Nc3nc(N4CCC[C@@H](COc5cccc6c(C7CCC(=O)NC7=O)nn(C)c56)C4)ncc3Cl)ccc2n(C)c1=O (stereo partly drawn) [Compound 301b, 2-((6-((5-chloro-2-((3R)-3-(((3-(2,6-dioxopiperidin-3-yl)-1-methyl-1H-indazol-7-yl)oxy)methyl)piperidin-1-yl)pyrimidin-4-yl)amino)-1-methyl-2-oxo-1,2-dihydroquinolin-3-yl)oxy)-N-methylacetamide]	++ (50% < Ymin ≤ 70%)
CNC(=O)COc1cc2cc(Nc3nc(N4CCC[C@H](COc5ccc6c(C7CCC(=O)NC7=O)nn(C)c6c5)C4)ncc3Cl)ccc2n(C)c1=O (stereo partly drawn) [Compound 302a, 2-((6-((5-chloro-2-((3S)-3-(((3-(2,6-dioxopiperidin-3-yl)-1-methyl-1H-indazol-6-yl)oxy)methyl)piperidin-1-yl)pyrimidin-4-yl)amino)-1-methyl-2-oxo-1,2-dihydroquinolin-3-yl)oxy)-N-methylacetamide]	++ (50% < Ymin ≤ 70%)
